Source: patent US4783462A, “3(2H)pyridazinone, and anti-allergic agent containing it” (Nissan Chemical Industries Ltd., priority 1985, dated 1988)

Tested on: LTC4
Test: Antagonism in isolated guinea-pig trachea, Test method (i) (Table 3, given as LTC4 antagonism)
Assay type: cell-based
Conditions: Cavia porcellus, 5 min, test compound 10^-5 g/ml, given as LTC4 antagonisms
Description: (i) LTC4 and LTD4 antagonisms in guinea-pig trachea
Antagonisms for LTC4 and LTD4 were determined in isolated guinea-pig trachea prepared as spiral strip. Tracheal preparations were suspended under 1 g tension in 10 ml organ baths and they were incubated for 1 hr prior to use. Contractile responses to LTC4 (2×10^-8 g/ml) and LTD4 (2×10^-8 g/ml) were obtained after the maximal response to histamine (10^-4 M). Test compounds dissolved in 100% dimethyl sulfoxide were added to the organ baths (final concentration of 10^-5 g/ml or 10^-6 g/ml) 5 min prior to LTC4 and LTD4 addition, and then contractile responses to LTC4 and LTD4 were compared with those of control which was obtained from a paired trachea in the absence of test compounds. LTC4 - and LTD4 -induced contractions were expressed as a percentage of the maximal response to histamine. The antagonism was determined as follows:
Antagonism (%)=(1.0-% contraction in test/% contraction in […]

SMILES | inhibition at 10 µg/mL
CCCc1cc(-c2nnn[nH]2)ccc1OCCCNc1cnn(C(C)(C)C)c(=O)c1Cl [Compound No. 2, 4-Chloro-5-{3-[2-n-propyl-4-(1H-tetrazol-5-ylphenoxy)]propylamino}-2-t-butyl-3(2H)pyridazinone] | 15%
CCCc1cc(C(=O)OC)ccc1OCCCNc1cnn(C(C)(C)C)c(=O)c1Cl [Compound No. 3] | 28%
CCOC(=O)c1ccc(OCCCNc2cnn(C(C)(C)C)c(=O)c2Cl)c(Cl)c1 [Compound No. 8] | 32%
CC(C)(C)n1ncc(NCCCOc2ccc(C(=O)O)cc2Cl)c(Cl)c1=O [Compound No. 9] | 14%
CCn1ncc(NCCCOc2ccc(C(=O)O)cc2Cl)c(Cl)c1=O [Compound No. 11] | 13%
CCCc1cc(C(=O)O)ccc1OCCCNc1cnn(C)c(=O)c1Cl [Compound No. 12] | 35%
Cc1ccc(S(=O)(=O)OCCCNc2cnn(C(C)(C)C)c(=O)c2Cl)cc1 [Compound No. 15, 4-Chloro-5-[3-(4-methylphenylsulfonyloxy)propylamino]-2-t-butyl-3(2H)pyridazinone] | 40%
COc1ccc(CCNc2cnn(C(C)(C)C)c(=O)c2Cl)cc1OC [Compound No. 16] | 31%
CCn1ncc(NCCCOC(=O)c2ccc(Cl)cc2)c(Cl)c1=O [Compound No. 17] | 45%
CCn1ncc(NCCc2ccc(OC)c(OC)c2)c(Cl)c1=O [Compound No. 18] | 20%
CCOC(=O)c1ccc(OCCCOc2cnn(CC)c(=O)c2Cl)c(Cl)c1 [Compound No. 30, 4-Chloro-5-[3-(2-chloro-4-ethoxycarbonylphenoxy)propoxy]-2-ethyl-3(2H)pyridazinone] | 40%
CCCc1c(OCCCOc2cnn(C(C)(C)C)c(=O)c2Cl)ccc(C(C)=O)c1O [Compound No. 37, 4-Chloro-5-[3-(2-n-propyl-3-hydroxy-4-acetylphenoxy)propoxy]-2-t-butyl-3(2H)pyridazinone] | 40%
CCCc1cc(C(=O)OCC)ccc1OCCCNc1cnn(C(C)C)c(=O)c1 [Compound No. 63, 5-[3-(2-n-propyl-4-ethoxycarbonylphenoxy)propylamino]-2-i-propyl-3(2H)pyridazinone] | 54%
CCCc1cc(C(=O)OC)ccc1OCCCN(C)c1cnn(C(C)C)c(=O)c1Cl [Compound No. 73, 4-Choloro-5-[3-(2-n-propyl-4-methoxycarbonylphenoxy)propyl-N-methylamino]-2-i-propyl-3(2H)pyridazinone] | 48%
CCc1cc(C=O)ccc1OCCCNc1cnn(CC)c(=O)c1Cl [Compound No. 92, 4-chloro-5-[3-(2-ethyl-4-formylphenoxy)propylamino]-2-ethyl-3(2H) pyridazinone] | 100%
CCc1cc(C=CC(=O)O)ccc1OCCCNc1cnn(CC)c(=O)c1Cl [Compound No. 93, 4-Chloro-5-{3-[2-ethyl-4-(2-carboxyethenyl)phenoxy]propylamino}-2-ethyl-3(2H)pyridazinone] | 79%
CCCc1cc(O)ccc1OCCCNc1cnn(CC)c(=O)c1Cl [Compound No. 108, 4-Chloro-5-[3-(2-n-propyl-4-hydroxyphenoxy)propylamino]-2-ethyl-3(2H)pyridazinone] | 94%
Cc1ccc(S(=O)(=O)OCC(O)CNc2cnn(C(C)C)c(=O)c2Cl)cc1 (stereo not drawn) [Compound No. 143, 4-Chloro-5-[3-(4-methylphenylsulfonyloxy)-2-hydroxypropylamino]-2-i-propyl-3(2H)pyridazinone] | 26%
CCCc1cc(C#N)ccc1SCC(O)CNc1cnn(C(C)C)c(=O)c1Cl (stereo not drawn) [Compound No. 153, 4-Chloro-5-[3-(2-n-propyl-4-cyanothiophenoxy)-2-hydroxypropylamino]-2-i-propyl-3(2H)pyridazinone] | 64%

SMILES | inhibition at 10 µg/mL
CCCc1cc(C(=O)O)ccc1SCC(O)CNc1cnn(C(C)C)c(=O)c1Cl (stereo not drawn) [Compound No. 154, 4-Chloro-5-[3-(2-n-propyl-4-carboxythiophenoxy)-2-hydroxypropylamino]-2-i-propyl-3(2H)pyridazinone] | 20%
CCCc1cc(C(=O)OC)ccc1SCC(O)CNc1cnn(C(C)C)c(=O)c1Cl (stereo not drawn) [Compound No. 155, 4-Chloro-5-[3-(2-n-propyl-4-methoxycarbonylthiophenoxy)-2-hydroxypropylamino]-2-i-propyl-3(2H) pyridazinone] | 55%
CCCc1cc(C#N)ccc1OCC(CN(C)c1cnn(C(C)C)c(=O)c1Cl)OC (stereo not drawn) [Compound No. 157, 4-Chloro-5-[3-(2-n-propyl-4-cyanophenoxv)-2-methoxypropyl-N-methylamino]-2-i-propyl-3(2H)pyridazinone] | 62%
COC(=O)CCC(=O)c1ccc(OCC(O)CNc2cnn(C(C)C)c(=O)c2Cl)cc1 (stereo not drawn) [Compound No. 166, 4-chloro-5-{3-[4-(β-methoxycarbonylpropyonyl)phenoxy]-2-hydroxypropylamino}-2-i-propyl-3(2H) pyridazinone] | 25%
COC(=O)CC(C)C(=O)c1ccc(OCC(CN(C)c2cnn(C(C)C)c(=O)c2Cl)OC)cc1 (stereo not drawn) [Compound No. 167, 4-Chloro-5-{3-[4-(β-methoxycarbonyl-α-methylpropionyl)phenoxy]-2-methoxypropyl-N-methylamino}-2-i-propyl-3(2H)pyridazinone] | 30%
CCCc1cc(C#N)ccc1OCC(O)COc1cnn(C(C)C)c(=O)c1Cl (stereo not drawn) [Compound No. 171, 4-Chloro-5-[3-(2-n-propyl-4-cyanophenoxy)-2-hydroxypropoxy]-2-i-propyl-3(2H)pyridazinone] | 66%
CCCc1cc(C#N)ccc1OCC(COc1cnn(C(C)C)c(=O)c1Cl)OC (stereo not drawn) [Compound No. 172, 4-Chloro-5-[3-(2-n-propyl-4-cyanophenoxy)-2-methoxypropoxy]-2-i-propyl-3(2H)pyridazinone] | 79%
CCCc1cc(C(=O)O)ccc1OCCCNc1cnn(C(C)(C)C)c(=O)c1Cl [compound 5] | 33%
COc1ccc(CCNc2cnn(C(C)(C)C)c(=O)c2Cl)cc1 [compound 19] | 60%
CCCc1c(OCCCOc2cnn(C(C)(C)C)c(=O)c2Cl)ccc2c(=O)cc(C(=O)O)oc12 [compound 24] | 40%
CCCc1c(OCCCOc2cnn(C(C)(C)C)c(=O)c2CC)ccc2c(=O)cc(C(=O)OCC)oc12 [compound 26] | 15%
CCn1ncc(OCCCOc2ccc(C(=O)O)cc2Cl)c(Cl)c1=O [compound 31] | 19%
CCOC(=O)c1ccc(OCCCOc2cnn(C(C)(C)C)c(=O)c2Cl)c(Cl)c1 [compound 32] | 29%
CC(C)(C)n1ncc(OCCCOc2ccc(C(=O)O)cc2Cl)c(Cl)c1=O [compound 33] | 15%
COc1cccc(OCCCOc2cnn(C(C)(C)C)c(=O)c2Br)c1 [compound 34] | 61%
CCCc1cc(-c2nn[nH]n2)ccc1OCCCNc1cnn(CC)c(=O)c1Cl [compound 48] | 36%
CCOC(=O)c1ccc(OCCCNc2cnn(CC)c(=O)c2Cl)c(OC)c1 [compound 49] | 57%
CCn1ncc(NCCCOc2ccccc2OC)c(Cl)c1=O [compound 50] | 35%
CCn1ncc(NCCCOc2ccc(C(=O)O)cc2OC)c(Cl)c1=O [compound 52] | 23%

SMILES | inhibition at 10 µg/mL
CCOc1ccc(OCCCNc2cnn(CC)c(=O)c2Cl)cc1 [compound 53] | 59%
CCn1ncc(NCCCOc2ccc(C)cc2)c(Cl)c1=O [compound 54] | 64%
CCn1ncc(NCCCOc2ccc(OC)cc2)c(Cl)c1=O [compound 56] | 62%
CCn1ncc(NCCCOc2ccccc2C)c(Cl)c1=O [compound 57] | 83%
COc1ccc(OCCCNc2cnn(C(C)C)c(=O)c2Cl)cc1 [compound 58] | 88%
COc1ccccc1OCCCNc1cnn(C(C)C)c(=O)c1Cl [compound 59] | 82%
CCCc1cc(C#N)ccc1SCCCNc1cnn(C(C)C)c(=O)c1Cl [compound 61] | 73%
CCCc1cc(C(=O)O)ccc1SCCCNc1cnn(C(C)C)c(=O)c1Cl [compound 62] | 57%
CC(C)n1ncc(NCCc2ccc(O)cc2)c(Cl)c1=O [compound 66] | 69%
CCCc1cc(-c2nnn[nH]2)ccc1SCCCNc1cnn(C(C)C)c(=O)c1Cl [compound 68] | 33%
C=CCc1cc(C(=O)O)ccc1OCCCNc1cnn(C(C)C)c(=O)c1Cl [compound 70] | 65%
CC(C)n1ncc(NCCCOc2ccc(C(=O)CCC(=O)O)cc2)c(Cl)c1=O [compound 75] | 16%
COC(=O)CCC(=O)c1ccc(OCCCNc2cnn(C(C)C)c(=O)c2Cl)cc1 [compound 76] | 57%
COC(=O)CCC(=O)c1ccc(OCCCN(C)c2cnn(C(C)C)c(=O)c2Cl)cc1 [compound 77] | 17%
CC(C)n1ncc(N(C)CCCOc2ccc(C(=O)CCC(=O)O)cc2)c(Cl)c1=O [compound 78] | 32%
COC(=O)c1ccc(OCCCOc2cnn(C(C)C)c(=O)c2Cl)c(C(C)C)c1 [compound 79] | 58%
C=CCc1cc(C(=O)OC)ccc1OCCCNc1cnn(CC)c(=O)c1Cl [compound 81] | 80%
CCCc1cc(C(=O)O)ccc1OCCCOc1cnn(CC)c(=O)c1Cl [compound 83] | 46%
CCCc1cc(C(=O)OC)ccc1OCCCOc1cnn(CC)c(=O)c1Cl [compound 84] | 85%
